Test results as given in article PMC3119665, “A New Drug Design Targeting the Adenosinergic System for Huntington's Disease” (PLoS ONE, 2011).

Tests used:
[1] = system: Adrenergic β, Non-Selective; experiment: Radioligand binding panel (Table S1); design: species or system rat; conditions: 10 μM T1-11, n 2
[2] = system: Calcium Channel L-Type, Benzothiazepine; experiment: Radioligand binding panel (Table S1); design: species or system rat; conditions: 10 μM T1-11, n 2
[3] = target: T1, Corticotropin Releasing Factor, CRF1 (Homo sapiens, UniProt P34998); experiment: Radioligand binding panel (Table S1); conditions: 10 μM T1-11, n 2
T1 construct: purchased MDS Pharma Services Taiwan

Glucocorticoid = target: T2, Glucocorticoid (Homo sapiens, UniProt P04150); experiment: Radioligand binding panel (Table S1); conditions: 10 μM T1-11, n 2
T2 construct: purchased MDS Pharma Services Taiwan

Histamine H2 = target: T3, Histamine H2 (Homo sapiens, UniProt P25021); experiment: Radioligand binding panel (Table S1); conditions: 10 μM T1-11, n 2
T3 construct: purchased MDS Pharma Services Taiwan

Lipoxygenase 15-LO = target: T4, Lipoxygenase 15-LO (Oryctolagus cuniculus, UniProt P12530); experiment: Radioligand binding panel (Table S1); design: species or system rabbit; conditions: 10 μM T1-11, n 2
T4 construct: purchased MDS Pharma Services Taiwan

Melatonin MT2 = target: T5, Melatonin MT2 (Homo sapiens, UniProt P49286); experiment: Radioligand binding panel (Table S1); conditions: 10 μM T1-11, n 2
T5 construct: purchased MDS Pharma Services Taiwan

Phorbol Ester = experiment: Radioligand binding panel (Table S1); design: species or system mouse; conditions: 10 μM T1-11, n 2
[4] = target: T6, Serotonin (5-Hydroxytryptamine) 5-HT2C (Homo sapiens, UniProt P28335); experiment: Radioligand binding panel (Table S1); conditions: 10 μM T1-11, n 2
T6 construct: purchased MDS Pharma Services Taiwan

[5] = target: T7, Serotonin (5-Hydroxytryptamine) 5-HT6 (Homo sapiens, UniProt P50406); experiment: Radioligand binding panel (Table S1); conditions: 10 μM T1-11, n 2
T7 construct: purchased MDS Pharma Services Taiwan

Transporter, Dopamine = target: T8, Transporter, Dopamine (Homo sapiens, UniProt Q01959); experiment: Radioligand binding panel (Table S1); conditions: 10 μM T1-11, n 2
T8 construct: purchased MDS Pharma Services Taiwan

[6] = target: T9, Transporter, Serotonin (5-Hydroxytryptamine) (SERT) (Homo sapiens, UniProt P31645); experiment: Radioligand binding panel (Table S1); conditions: 10 μM T1-11, n 2
T9 construct: purchased MDS Pharma Services Taiwan

A2AR = target: T10, A2AR (Rattus norvegicus, UniProt P30543); experiment: cAMP assay in PC12 cells; assay type: cell-based
T10 construct: Treatment of PC12 cells with T1-11 dose-dependently elevated the cellular cAMP levels; endogenous in cells; host or cells: PC12
Procedure: PC12 cells were plated at the density of 5×10^5 cells/well (on 12-well plates) and incubated with the indicated reagent(s) for the desired period of time. Cells were washed twice with ice-cold Locke's solution (150 mM NaCl, 5.6 mM KCl, 5 mM glucose, 1 mM MgCl2, and 10 mM HEPES, adjusted to pH 7.4). Cellular cAMP was extracted by adding 0.3 ml of 0.1 M HCl to each well and incubating this for 10 min on ice.

[7] = target: T11, adenosine transporter (ENT1) (Rattus norvegicus, UniProt O54698); experiment: Adenosine uptake by PC12 cells; assay type: cell-based
T11 construct: endogenous in cells; host or cells: PC12
Procedure: For adenosine uptake of PC12, cells were seeded approximately 16 h before each uptake assay at ∼2×10^5 cells per well in 24-well plates coated with poly-L-lysine. To perform adenosine uptake assays, cells were washed with Krebs Ringer-Henseleit buffer [125 mM NaCl, 4.8 mM KCl, 1.3 mM CaCl2, 1.2 mM MgSO4, 1.2 mM KH2PO4, 5.6 mM glucose, 10 µM pargyline, and 10 mM HEPES (pH 7.2)] and incubated in the same buffer for 10 min at 37°C in the presence or absence of the indicated reagent(s). Adenosine uptake was initiated by adding [^3H]adenosine at the indicated concentration (0.5 µCi/mmol) at 37°C. At the end of the incubation, cells were placed on ice, washed twice with ice-cold Krebs Ringer-Henseleit buffer to remove free [^3H]adenosine, lysed with 1% Triton X-100, and added to scintillation vials to count the radioactivity. Non-specific uptake was determined as the uptake performed in the presence of 100 µM adenosine, and was subtracted from the total adenosine uptake.

R6/2 mice = experiment: Survival of R6/2 mice; assay type: in vivo; conditions: 0.05 mg/ml in drinking water, n = 11
Description: Male R6/2 mice and littermate controls were originally obtained from Jackson Laboratories (Bar Harbor, ME, USA), and mated to female control mice (B6CBAFI/J). Offspring were identified by a polymerase chain reaction (PCR) genotyping technique of genomic DNA extracted from tail tissues using primers located in the transgene (5′-[…]-3′ and 5′-[…]- AGGAG-3′) to ensure that the number of CAG repeats remained approximately 150. In total, 211 R6/2 transgenic mice were used in this study. Animals were housed at the Institute of Biomedical Sciences Animal Care Facility under a 12-h light/dark cycle. Body weights of mice were recorded once daily. Animal experiments were performed under protocols approved by the Academia Sinica Institutional Animal Care and Utilization Committee, Taipei, Taiwan.
Supplementary file pone.0020934.s005.tif: Figure S5 Effect of T1-11 on the shorten lifespan and enlarged ventricle of R6/2 mice. Animals were given the vehicle (1% DMSO; CON) or T1-11 (0.05 mg/ml)-containing drinking water from the age of 7 weeks. (A) Survival was assessed. Specific comparison to R6/2 mice treated with the vehicle (p = 0.306; Mantel-Cox test). (B) Five weeks after T1-11 treatment, 3D-lMRI was performed to determine the ventricle-to-brain ratio of the indicated animals as described. * p<0.05. (TIF) Click here for additional data file.

BDNF = experiment: Cortical BDNF transcript, quantitative RT-PCR; assay type: in vivo; conditions: R6/2 mice, 0.05 mg/ml in drinking water
Procedure: Total RNA was isolated from the cortex of the indicated mice using the TriReagent kit (Molecular Research Center, Cincinnati, OH, USA), treated with RNase-free DNase (RQ1; Promega) to remove potential contamination by genomic DNA, and transcribed into complementary (c)DNA using Superscript* II reverse transcriptase. A real-time quantitative PCR was performed using a TaqMan kit (PE Applied Biosystems, Foster City, CA, USA) on a TaqMan ABI 7700 Sequence Detection System (PE Applied Biosystems) using heat-activated TaqDNA polymerase (Amplitaq Gold; PE Applied Biosystems). The PCR mixtures were incubated at 50°C for 2 min and 95°C for 10 min, and then 40 PCR cycles were conducted (95°C for 15 s and 65°C for 1 min). The sequences of primers are listed below: for BDNF (the target gene), 5′-[…]-3′ and 5′-[…]-3′; and for GAPDH (the reference gene), 5′[…]-3′ and 5′-[…]-3′. Independent reverse-transcription PCRs were performed using the same cDNA for both the indicated target gene and reference gene (GAPDH). […] Data were analyzed using ABI 7700 operating software to determine the threshold cycle (CT) above the background for each reaction. The relative transcript amount of the target gene, which was calculated using standard curves of serial RNA dilutions, was normalized to that of GAPDH of the same RNA.

T11 sequence (O54698 whole entry): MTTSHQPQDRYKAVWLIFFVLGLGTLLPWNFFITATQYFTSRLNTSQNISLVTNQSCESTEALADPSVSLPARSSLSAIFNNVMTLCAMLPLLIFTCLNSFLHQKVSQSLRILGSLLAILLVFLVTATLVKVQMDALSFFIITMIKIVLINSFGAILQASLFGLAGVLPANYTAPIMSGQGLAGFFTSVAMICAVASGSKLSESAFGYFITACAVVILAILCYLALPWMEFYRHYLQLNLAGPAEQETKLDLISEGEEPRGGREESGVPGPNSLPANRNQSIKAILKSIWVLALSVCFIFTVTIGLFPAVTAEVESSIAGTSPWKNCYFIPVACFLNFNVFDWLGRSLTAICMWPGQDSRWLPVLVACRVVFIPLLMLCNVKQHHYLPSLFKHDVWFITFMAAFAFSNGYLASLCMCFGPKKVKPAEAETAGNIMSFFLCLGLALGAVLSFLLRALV
T10 sequence (P30543 whole entry): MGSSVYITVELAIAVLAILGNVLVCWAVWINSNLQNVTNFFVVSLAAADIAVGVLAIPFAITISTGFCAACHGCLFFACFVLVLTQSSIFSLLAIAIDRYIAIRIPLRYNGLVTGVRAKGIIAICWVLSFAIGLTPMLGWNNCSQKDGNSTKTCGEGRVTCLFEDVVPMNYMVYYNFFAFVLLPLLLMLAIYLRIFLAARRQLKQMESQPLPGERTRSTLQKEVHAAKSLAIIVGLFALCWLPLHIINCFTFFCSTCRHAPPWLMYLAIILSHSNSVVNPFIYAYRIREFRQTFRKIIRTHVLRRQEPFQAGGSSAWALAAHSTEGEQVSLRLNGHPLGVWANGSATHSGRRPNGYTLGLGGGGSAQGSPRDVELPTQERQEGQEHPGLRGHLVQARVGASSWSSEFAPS
T1 sequence (P34998 24-415): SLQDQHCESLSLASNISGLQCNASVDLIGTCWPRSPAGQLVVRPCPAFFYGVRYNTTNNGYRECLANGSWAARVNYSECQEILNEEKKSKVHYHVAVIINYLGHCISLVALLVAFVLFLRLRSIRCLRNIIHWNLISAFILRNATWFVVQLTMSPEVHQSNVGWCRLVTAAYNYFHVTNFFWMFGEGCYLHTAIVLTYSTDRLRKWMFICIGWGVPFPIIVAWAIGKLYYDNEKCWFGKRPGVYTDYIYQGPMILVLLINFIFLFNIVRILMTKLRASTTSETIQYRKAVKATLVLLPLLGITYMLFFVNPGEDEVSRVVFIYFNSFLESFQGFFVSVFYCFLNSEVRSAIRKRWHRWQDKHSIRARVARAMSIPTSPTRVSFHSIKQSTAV
T2 sequence (P04150 whole entry): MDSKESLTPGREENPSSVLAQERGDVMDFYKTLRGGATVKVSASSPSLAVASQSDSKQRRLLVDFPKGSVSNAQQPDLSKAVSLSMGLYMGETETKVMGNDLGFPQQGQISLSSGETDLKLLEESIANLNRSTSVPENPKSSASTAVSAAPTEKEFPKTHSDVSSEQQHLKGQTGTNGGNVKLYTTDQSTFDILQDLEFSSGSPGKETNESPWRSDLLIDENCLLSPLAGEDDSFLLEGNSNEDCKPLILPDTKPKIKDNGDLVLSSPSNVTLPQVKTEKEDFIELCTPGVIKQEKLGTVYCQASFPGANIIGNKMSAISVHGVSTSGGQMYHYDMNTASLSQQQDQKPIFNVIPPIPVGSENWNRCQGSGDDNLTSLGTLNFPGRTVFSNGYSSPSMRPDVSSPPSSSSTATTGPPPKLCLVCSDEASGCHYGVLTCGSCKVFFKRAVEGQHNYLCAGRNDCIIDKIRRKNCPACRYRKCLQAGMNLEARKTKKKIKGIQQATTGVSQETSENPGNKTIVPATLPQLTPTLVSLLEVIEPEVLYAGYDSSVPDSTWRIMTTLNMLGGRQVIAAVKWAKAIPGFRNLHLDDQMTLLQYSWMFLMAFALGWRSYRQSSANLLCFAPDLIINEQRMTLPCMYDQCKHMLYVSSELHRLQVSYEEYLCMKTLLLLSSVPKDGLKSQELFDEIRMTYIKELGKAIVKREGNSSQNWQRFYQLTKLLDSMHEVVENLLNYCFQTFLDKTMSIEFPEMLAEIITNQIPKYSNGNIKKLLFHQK
T3 sequence (P25021 whole entry): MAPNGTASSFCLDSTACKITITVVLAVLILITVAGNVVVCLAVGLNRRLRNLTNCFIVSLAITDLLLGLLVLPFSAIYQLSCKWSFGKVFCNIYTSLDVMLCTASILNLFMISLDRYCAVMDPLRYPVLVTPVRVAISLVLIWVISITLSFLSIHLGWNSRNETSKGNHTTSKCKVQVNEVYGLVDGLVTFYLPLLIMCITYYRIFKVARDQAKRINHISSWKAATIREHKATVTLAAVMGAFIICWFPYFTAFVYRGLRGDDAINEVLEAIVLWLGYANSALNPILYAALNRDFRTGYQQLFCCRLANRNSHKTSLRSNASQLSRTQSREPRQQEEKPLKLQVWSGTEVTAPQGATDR
T7 sequence (P50406 whole entry): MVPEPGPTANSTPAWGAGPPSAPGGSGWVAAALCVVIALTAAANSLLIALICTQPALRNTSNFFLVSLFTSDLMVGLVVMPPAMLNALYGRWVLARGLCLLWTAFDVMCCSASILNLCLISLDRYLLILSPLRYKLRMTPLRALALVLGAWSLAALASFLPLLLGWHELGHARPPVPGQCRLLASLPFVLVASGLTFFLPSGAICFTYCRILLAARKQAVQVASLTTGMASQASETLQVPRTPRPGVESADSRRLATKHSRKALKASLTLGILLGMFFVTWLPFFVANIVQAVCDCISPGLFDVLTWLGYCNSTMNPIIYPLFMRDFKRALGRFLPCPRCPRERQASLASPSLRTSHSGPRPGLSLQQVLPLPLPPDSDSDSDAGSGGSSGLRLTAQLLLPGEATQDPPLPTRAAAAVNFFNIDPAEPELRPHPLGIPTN
T5 sequence (P49286 whole entry): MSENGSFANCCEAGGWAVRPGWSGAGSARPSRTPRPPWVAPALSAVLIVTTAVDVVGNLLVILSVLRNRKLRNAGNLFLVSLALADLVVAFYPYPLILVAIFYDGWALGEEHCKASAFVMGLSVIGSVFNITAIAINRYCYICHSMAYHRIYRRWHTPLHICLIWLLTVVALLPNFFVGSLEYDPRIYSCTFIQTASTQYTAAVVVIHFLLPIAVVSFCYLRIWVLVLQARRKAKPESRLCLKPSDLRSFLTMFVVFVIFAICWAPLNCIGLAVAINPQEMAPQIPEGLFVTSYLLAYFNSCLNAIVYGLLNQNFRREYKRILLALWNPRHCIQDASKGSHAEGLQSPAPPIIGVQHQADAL
T9 sequence (P31645 whole entry): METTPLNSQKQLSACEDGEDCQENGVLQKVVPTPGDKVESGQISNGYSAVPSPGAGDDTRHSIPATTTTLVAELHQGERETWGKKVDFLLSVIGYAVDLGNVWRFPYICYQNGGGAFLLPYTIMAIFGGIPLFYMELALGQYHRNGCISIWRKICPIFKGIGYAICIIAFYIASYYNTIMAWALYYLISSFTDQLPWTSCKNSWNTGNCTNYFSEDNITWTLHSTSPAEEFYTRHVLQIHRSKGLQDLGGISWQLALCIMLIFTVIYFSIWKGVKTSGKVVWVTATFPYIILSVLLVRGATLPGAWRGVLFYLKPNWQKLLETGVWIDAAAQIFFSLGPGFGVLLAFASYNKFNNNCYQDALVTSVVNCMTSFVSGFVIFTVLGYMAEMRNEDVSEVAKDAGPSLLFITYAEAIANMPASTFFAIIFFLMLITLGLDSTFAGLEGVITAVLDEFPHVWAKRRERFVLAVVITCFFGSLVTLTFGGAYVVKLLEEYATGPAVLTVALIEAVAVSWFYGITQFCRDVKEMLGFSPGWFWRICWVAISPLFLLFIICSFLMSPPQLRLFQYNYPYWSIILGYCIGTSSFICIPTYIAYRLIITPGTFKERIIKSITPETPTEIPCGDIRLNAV
T4 sequence (P12530 whole entry): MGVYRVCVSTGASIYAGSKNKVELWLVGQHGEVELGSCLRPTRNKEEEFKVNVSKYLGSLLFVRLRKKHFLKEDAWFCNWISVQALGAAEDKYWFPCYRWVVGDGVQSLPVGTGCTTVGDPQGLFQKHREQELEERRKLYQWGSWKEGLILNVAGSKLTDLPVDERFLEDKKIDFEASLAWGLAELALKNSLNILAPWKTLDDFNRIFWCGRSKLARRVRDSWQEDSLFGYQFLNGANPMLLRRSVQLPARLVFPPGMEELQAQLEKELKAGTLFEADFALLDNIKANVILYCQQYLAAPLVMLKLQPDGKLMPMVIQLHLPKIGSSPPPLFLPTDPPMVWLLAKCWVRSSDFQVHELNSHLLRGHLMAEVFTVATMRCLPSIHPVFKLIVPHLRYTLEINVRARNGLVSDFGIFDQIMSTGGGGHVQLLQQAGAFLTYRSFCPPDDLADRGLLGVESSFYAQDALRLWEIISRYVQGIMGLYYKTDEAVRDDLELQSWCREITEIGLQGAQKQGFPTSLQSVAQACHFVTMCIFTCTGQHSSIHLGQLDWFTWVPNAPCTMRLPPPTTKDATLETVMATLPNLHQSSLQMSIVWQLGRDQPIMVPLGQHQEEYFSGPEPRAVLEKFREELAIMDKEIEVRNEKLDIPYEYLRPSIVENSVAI
T6 sequence (P28335 33-458): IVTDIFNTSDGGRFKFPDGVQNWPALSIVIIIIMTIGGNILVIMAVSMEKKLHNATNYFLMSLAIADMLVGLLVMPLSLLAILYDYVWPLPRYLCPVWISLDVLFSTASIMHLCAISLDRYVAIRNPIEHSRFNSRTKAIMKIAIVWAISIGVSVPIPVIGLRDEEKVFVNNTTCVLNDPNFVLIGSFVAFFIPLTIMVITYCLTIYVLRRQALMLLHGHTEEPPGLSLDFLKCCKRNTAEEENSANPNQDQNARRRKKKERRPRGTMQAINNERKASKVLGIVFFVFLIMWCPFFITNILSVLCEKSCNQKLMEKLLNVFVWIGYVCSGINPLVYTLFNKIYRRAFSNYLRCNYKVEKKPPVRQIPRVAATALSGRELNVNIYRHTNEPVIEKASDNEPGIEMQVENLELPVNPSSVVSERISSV

Structure (SMILES): OC[C@H]1O[C@@H](n2cnc3c(NCc4ccc(O)cc4)ncnc32)[C@H](O)[C@@H]1O [T1-11, N ^6-(4-hydroxybenzyl)adenine riboside]
- % Inhibition [1]: 10%
- % Inhibition [2]: -8%
- inhibition at 10 µM [3]: 1%
- inhibition at 10 µM (Glucocorticoid): -10%
- inhibition at 10 µM (Histamine H2): -10%
- inhibition at 10 µM (Lipoxygenase 15-LO): 14%
- inhibition at 10 µM (Melatonin MT2): -20%
- % Inhibition (Phorbol Ester): 9%
- inhibition at 10 µM [4]: 27%
- inhibition at 10 µM [5]: 12%
- inhibition at 10 µM (Transporter, Dopamine): -6%
- inhibition at 10 µM [6]: 5%
- Function (A2AR; A2A adenosine receptor, elevates cellular cAMP levels): agonist
- EC50 (A2AR; PC12 cells, 20 min at RT, read-out: EC50, elevation of cellular cAMP levels): ~2200 nM
- Function ([7]; Adenosine transporter (ENT1), suppressed the uptake of adenosine): inhibitor
- Inhibition of adenosine uptake ([7]; PC12 cells): inhibited adenosine uptake by PC12 cells in a dose-dependent manner
- Mean survival time (R6/2 mice): 103.3 ± 3.9 days
- Cortical BDNF (BDNF): contained more cortical BDNF than R6/2 mice that received no treatment
